Results published in patent US10881694B2, “In vitro model for neuronal death” (priority 2003, dated 2021).

Key:
cortical neurons [1] = assay: Polarization of somal lipid raft microdomains (CTx-B staining) in cultured cortical neurons; assay type: cell-based, mouse; conditions: for inhibition of lipid raft / microdomain polarization: treatment of cortical cultures, neurotoxic insult not specified; for percentage of neurons with polarized raft microdomains: cholesterol-depleted vs control neurons; for inhibition of lipid raft polarization: FIG. 3, 25 μM A-beta 25-35 peptide and 300 μM NMDA
cortical neurons [2] = assay: Chromatin integrity (DAPI): nuclei with condensed and fragmented chromatin; assay type: cell-based, mouse; conditions: cholesterol-depleted vs control neurons
[3] = active form of mevastatin; cited from earlier work
cortical neurons [4] = assay: Neuronal death by LDH release assay (and chromatin fragmentation, FIG. 3) after neurotoxic exposure; assay type: cell-based, mouse; conditions: for effect of co-treatment on neuroprotection by statins: co-treatment with HMG-CoA reductase inhibitor
[5] = three hours following 20 μM Aβ 25-35

C[N+](C)(C)CC(O)CC(=O)[O-] (stereo not shown) [carnitine]
inhibition of lipid raft / microdomain polarization (cortical neurons [1]): inhibit raft polarization

CC[C@H](C)C(=O)O[C@H]1CCC=C2C=C[C@H](C)[C@H](CC[C@@H]3C[C@@H](O)CC(=O)O3)[C@H]21 [mevastatin]
percentage of neurons with condensed and fragmented chromatin (cortical neurons [2]; 24 h following 300 μM NMDA): significantly lower | percentage of neurons with condensed and fragmented chromatin (cortical neurons [2]; 48 h following 20 μM Aβ 25-35): significantly lower | lipophilicity relative to simvastatin (times less lipophilic) [3]: approximately 8 times | protection against neurotoxic exposure (LDH release assay and chromatin fragmentation) (cortical neurons [4]; 25 μM A-beta 25-35 peptide): protect against neurotoxic exposure | protection against neurotoxic exposure (LDH release assay and chromatin fragmentation) (cortical neurons [4]; 300 μM NMDA): protect against neurotoxic exposure | percentage of neurons with polarized raft microdomains (cortical neurons [1]; 1 h following 300 μM NMDA): significantly lower | inhibition of lipid raft polarization (cortical neurons [1]): inhibit lipid raft polarization | percentage of neurons with polarized raft microdomains (cortical neurons [1]; [5]): significantly lower

C=C1[C@@H](C)[C@H]2[C@H](Cc3ccccc3)NC(=O)[C@]23[C@H](OC(C)=O)/C=C/[C@@](C)(O)C(=O)[C@@H](C)C/C=C/[C@H]3[C@@H]1O [cytochalasin D]
inhibition of lipid raft / microdomain polarization (cortical neurons [1]): prevents the polarization of lipid microdomains

A-beta 25-35 peptide: beta-amyloid peptide fragment 25-35, neurotoxic stimulus (GSNKGAIIGLM; Amyloid-beta protein 42; UniProt P05067 696-706, looked up, fragment)
induction of raft microdomain polarization to a pole of the neuronal cell body (cortical neurons [1]; neurotoxic stimulus, FIG. 1B): aggregation and polarization of raft microdomains

methyl-β-cyclodextrin [βCD]
percentage of neurons with condensed and fragmented chromatin (cortical neurons [2]; 24 h following 300 μM NMDA): significantly lower | percentage of neurons with condensed and fragmented chromatin (cortical neurons [2]; 48 h following 20 μM Aβ 25-35): significantly lower | protection against neurotoxic exposure (LDH release assay and chromatin fragmentation) (cortical neurons [4]; 25 μM A-beta 25-35 peptide): protect against neurotoxic exposure | protection against neurotoxic exposure (LDH release assay and chromatin fragmentation) (cortical neurons [4]; 300 μM NMDA): protect against neurotoxic exposure | protection against neuronal death / neurotoxic insults (cortical neurons [4]; treatment of cortical cultures, insult not specified): protects against neuronal death | inhibition of raft polarization (cortical neurons [1]; 15 min exposure to 25 μM A-beta 25-35 peptide, 1 hr pre-treatment): inhibition of raft polarization | percentage of neurons with polarized raft microdomains (cortical neurons [1]; 1 h following 300 μM NMDA): significantly lower | inhibition of lipid raft polarization (cortical neurons [1]): inhibit lipid raft polarization | percentage of neurons with polarized raft microdomains (cortical neurons [1]; [5]): significantly lower | inhibition of lipid raft / microdomain polarization (cortical neurons [1]): inhibits lipid raft polarization

CC(O)(CCO)CC(=O)O (stereo not shown) [mevalonate]
effect of co-treatment on neuroprotection by statins (cortical neurons [4]): substantially attenuated

CC(C)CCC[C@@H](C)[C@H]1CC[C@H]2[C@@H]3CC=C4C[C@@H](O)CC[C@]4(C)[C@H]3CC[C@]12C [cholesterol]
effect on cholesterol depletion induced resistance to neuronal death (LDH release) (cortical neurons [4]; 5 μM cholesterol co-incubated with mevastatin, or 2 mM cholesterol complexed with 2.5% βCD for 15 min after 1% βCD, 20 μM Aβ 25-35 or NMDA): prevented | effect of co-treatment on neuroprotection by statins (cortical neurons [4]): substantially attenuated

latrunculins
inhibition of lipid raft / microdomain polarization (cortical neurons [1]): prevents the polarization of lipid microdomains
